The source of these data is patent US8338565B2, “Macrocyclic compounds for inhibition of tumor necrosis factor alpha” (Ensemble Therapeutics Corporation, priority 2008, dated 2012).

The assay concerns the target T1, TNFα / TNFα receptor (TNFα R1/Fc) (Homo sapiens, UniProt P01375).
T1 construct: purchased R&D Systems
Nature of the assay: Inhibition of binding of TNFα to the TNFα receptor (plate ELISA competition). The conditions noted are these: Table 2; read-out: Activity (IC50, inhibition of TNFα binding to TNFα R1/Fc). Summed up: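 Plates were coated with TNFα at 15 nM. Test compound and 8.33 nM receptor-Fc (PBST, 2% DMSO) were first mixed in solution for 30 min at room temperature, then transferred to the plates for another 30 min. Competition was read by absorbance at 450 nm after HRP anti-human IgG Fc detection with TMB.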

Numbered stars: 1 amine (or outer) side, 2 acyl side, 3 side chain; on linkers, the order of the positions; unused ones are H or OH. Bridge positions count the residues as written; N and C are the ends. Square brackets hold non-standard residues; d marks the D form. Peptide text beside a SMILES is read from it. Bip = N[C@@H](Cc1ccc(-c2ccccc2)cc1)C(=O)O; Phe(4-NH2) = Nc1ccc(C[C@H](N)C(=O)O)cc1; d(hPhe) = N[C@H](CCc1ccccc1)C(=O)O; Suc = O=C(CCC(=O)[*:2])[*:1] A value given as a limit tells only on which side of the number the result lay.

T1 sequence (P01375 77-233 limits assumed, species assumed): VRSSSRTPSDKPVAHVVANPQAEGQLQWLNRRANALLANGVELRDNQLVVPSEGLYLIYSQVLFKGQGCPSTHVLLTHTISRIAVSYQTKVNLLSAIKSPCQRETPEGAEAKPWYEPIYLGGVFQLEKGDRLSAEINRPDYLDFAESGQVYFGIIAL

With `O=C1CCC(=O)N[C@H](CCc2ccccc2)C(=O)N[C@@H](Cc2ccc(-c3ccccc3)cc2)C(=O)N[C@H](Cc2ccccc2)C(=O)N[C@H](C(=O)N[C@@H](Cc2ccccc2)C(=O)O)Cc2ccc(cc2)N1` [Compound 202] ([d(hPhe)][Bip][dF][Phe(4-NH2)]F-OH; linker N-4 via Suc), the IC50 was less than 10 µM.
